From PubChem BioAssay (NCI)
Values joined by “and” are separate entries in the source; they are usually repeats but may differ in a detail not shown here. Identical values can stand only once.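 Five compound concentrations were applied to cells in 96-well plates for 48 hours; endpoints were derived by simple linear interpolation of the resulting dose-response curve. At the GI50, growth is halved. TGI marks complete inhibition of growth.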

Experiments:
Assay in all cases: NCI tumour cell line growth inhibition, 48 h
NCI-H460 lung = tested on: NCI-H460 lung
MOLT-4 leukemia = tested on: MOLT-4 leukemia
OVCAR-3 ovarian = tested on: OVCAR-3 ovarian
HCT-116 colon = tested on: HCT-116 colon
SK-OV-3 ovarian = tested on: SK-OV-3 ovarian
IGROV1 ovarian = tested on: IGROV1 ovarian
RXF 393 renal = tested on: RXF 393 renal
TK-10 renal = tested on: TK-10 renal
SW-620 colon = tested on: SW-620 colon
SK-MEL-28 melanoma = tested on: SK-MEL-28 melanoma

Row | Compound | TGI (NCI-H460 lung) | TGI (MOLT-4 leukemia) | TGI (OVCAR-3 ovarian) | TGI (HCT-116 colon) | TGI (SK-OV-3 ovarian) | TGI (IGROV1 ovarian) | TGI (RXF 393 renal) | TGI (TK-10 renal) | TGI (SW-620 colon) | TGI (SK-MEL-28 melanoma) | GI50 (NCI-H460 lung) | GI50 (MOLT-4 leukemia) | GI50 (OVCAR-3 ovarian) | GI50 (HCT-116 colon) | GI50 (SK-OV-3 ovarian) | GI50 (IGROV1 ovarian) | GI50 (RXF 393 renal) | GI50 (TK-10 renal) | GI50 (SW-620 colon) | GI50 (SK-MEL-28 melanoma)
1 | CN(C)CC/C(=N\Nc1ccc(Cl)c(Cl)c1)c1ccccc1 | 3.65 µM | 5.9 µM | 6.45 µM | 3.19 µM | 14.1 µM | 5.68 µM | 8.47 µM | 3.68 µM | 3.68 µM | 6.43 µM |  |  |  |  |  |  |  |  |  | 
2 | Cc1ccccc1-c1c(N)nc(N)nc1C(=O)Nc1nccs1 | > 100 µM | > 100 µM | > 100 µM | > 100 µM | > 100 µM | > 100 µM | > 100 µM | > 100 µM | > 100 µM | > 100 µM |  |  |  |  |  |  |  |  |  | 
3 | Nc1nc(N)c(N=O)c(Nc2ccc(I)cc2)n1 | > 100 µM | 65.9 µM | 43.7 µM | 43.5 µM | 39.2 µM | 25.8 µM | 55.2 µM | 62.1 µM | > 100 µM | 52.3 µM |  |  |  |  |  |  |  |  |  | 
4 | COc1ccc(-c2cc(-c3cn[nH]c3-c3ccccn3)ccn2)cc1 | > 25 µM | > 25 µM | > 25 µM | > 25 µM | > 25 µM | > 25 µM | > 25 µM | > 25 µM | > 25 µM | > 25 µM | > 25 µM | > 25 µM | > 25 µM | > 25 µM | > 25 µM | > 25 µM | > 25 µM | > 25 µM | > 25 µM | > 25 µM
5 | Nc1ncnc2c(C3OC(CO)C(O)C3O)[nH]nc12 (centres undefined) | 2.12 µM and 1.44 µM | 38.3 µM | 1.79 µM and 0.377 µM | 3.16 µM | 0.241 µM and 0.6 µM | 8.6 µM | 2.92 µM and 1.88 µM | 2.48 µM | 3.31 µM and 9.17 µM | 30.6 µM and 25.4 µM | 0.0434 µM | 3.59 µM and 2.01 µM | 0.168 µM and 0.071 µM |  | 0.0323 µM and 0.0738 µM |  |  | 0.0778 µM | 0.0592 µM | 2.64 µM and 1.69 µM
6 | Cc1cc2c3ccccc3ccc2[n+]2ccccc12 | 28.1 µM | 28.2 µM | 11.8 µM | 44.4 µM | 73.3 µM | > 86.2 µM | > 84.4 µM | > 86.8 µM | 32.8 µM | 12.7 µM | 8.81 µM | 4.64 µM | 2.28 µM | 7.29 µM | 10.7 µM | 10 µM | 14.3 µM | 19.7 µM | 2.99 µM | 3.07 µM
7 | N#Cc1cccc(/C=C(/C(=O)c2ccccc2)c2ccccc2)c1 | 19.6 µM | 23.4 µM | 11.8 µM | 11.3 µM | 20.8 µM | 25.3 µM | 10.8 µM | 19.9 µM | 15.5 µM | 19.1 µM | 3.85 µM | 3.19 µM | 3.63 µM | 3.06 µM | 5.53 µM | 4.27 µM | 3.72 µM | 5.75 µM | 3.28 µM | 5.35 µM
8 | CC(=O)OC1C/C(C)=C/CCC(C)/C=C/C2(C)CCC(C(C)(C)O)C12 (centres undefined) | > 100 µM | > 100 µM | > 100 µM | 77.1 µM | > 100 µM | > 100 µM | 53.3 µM | > 100 µM | > 100 µM | > 100 µM |  |  |  |  |  |  |  |  |  | 
9 | Cc1cccc(NC(=O)CCl)c1 | > 10 µM | > 10 µM | > 10 µM | > 10 µM | > 10 µM | > 10 µM | > 10 µM | > 10 µM | > 10 µM | > 10 µM |  |  |  |  |  |  |  |  |  | 
10 | NC(=S)NNC(=O)CCC(=O)Nc1ccc(Cl)cc1Cl | > 100 µM | > 100 µM | > 100 µM | > 100 µM | > 100 µM | > 100 µM | > 100 µM | > 100 µM | > 100 µM | > 100 µM |  |  |  |  |  |  |  |  |  | 
11 | O=C1[C@@H]2C3SC(c4ccccc43)[C@@H]2C(=O)N1c1ccccc1 | > 100 µM | > 100 µM | > 100 µM | > 100 µM | > 100 µM | > 100 µM | > 100 µM | > 100 µM | > 100 µM | > 100 µM |  |  |  |  |  |  |  |  |  | 
12 | CC(=O)C1C(=O)C(=O)N(c2ccccc2N2C(=O)C(=O)C(C(C)=O)C2=O)C1=O (centres undefined) | > 100 µM | > 100 µM | > 100 µM | > 100 µM | > 100 µM | > 100 µM | > 100 µM | > 100 µM | > 100 µM | > 100 µM |  |  |  |  |  |  |  |  |  | 
13 | Nc1ncnc2c(C3OC(CO)C(O)C3O)scc12 (centres undefined) | 0.554 µM and 1.12 µM | 1.99 µM and 1.9 µM | 0.0287 µM | 1.12 µM and 2.72 µM | 0.0357 µM and 0.075 µM | 3.3 µM | 1.39 µM | 4.01 µM and 4.24 µM | > 100 µM | 2.64 µM and 7.04 µM |  | 0.0989 µM |  |  |  | 0.0179 µM |  | 0.0186 µM |  | 1.2 µM
14 | CC(=O)OCC1OC(n2c(=O)n(-c3ccccc3)c(=O)c3cc(Br)cc(Br)c32)C(OC(C)=O)C(OC(C)=O)C1OC(C)=O (centres undefined) | > 100 µM | > 100 µM | > 100 µM | > 100 µM | > 100 µM | > 100 µM | > 100 µM | > 100 µM | > 100 µM | > 100 µM |  |  |  |  |  |  |  |  |  | 
15 | COc1ccc2[nH]c(=O)c(/C=C/C(=O)/C=C/c3ccc(O)c(OC)c3)cc2c1 | 5 µM | > 100 µM | 2.55 µM | 0.338 µM | 9.82 µM | 4.24 µM | 2.9 µM | 5.72 µM | 3.33 µM | 3.25 µM | 2.04 µM | 2.93 µM | 1.18 µM | 0.164 µM | 2.79 µM | 1.77 µM | 1.5 µM | 2.29 µM | 1.13 µM | 1.69 µM
16 | CCCCCCCCCC1C(C)c2c([nH]c3ccccc23)C2C(=O)N(c3ccccc3)C(=O)C21 (centres undefined) | 13.7 µM | 9.44 µM | 10.8 µM | 10.2 µM | 33.5 µM | 35.3 µM | 5.55 µM | 73.5 µM | > 100 µM | 4.7 µM |  |  |  |  |  |  |  |  |  | 
17 | c1ccc(-c2nnc(Nc3ccc4c(c3)OCCO4)o2)c(NCc2ccncc2)c1 | 15.2 µM | > 100 µM | 0.0504 µM | 11.8 µM | 0.0856 µM | 19.1 µM | 0.0421 µM | > 81.8 µM | > 100 µM | 39 µM | 0.0313 µM | 0.0485 µM | 0.021 µM | 0.0282 µM | 0.0191 µM | 0.0624 µM | < 0.01 µM | 1.98 µM | 0.0255 µM | 0.0411 µM
18 | COc1c(NC(=O)CC(C)=O)[c]([Hg][O]C(C)=O)c(OC)c(Cl)[c]1[Hg][O]C(C)=O | 49.9 µM | 64.4 µM | 26 µM | 31.8 µM | 31.1 µM | 28.3 µM | 24.7 µM | 25.3 µM | 20.8 µM | 23.9 µM | 21.3 µM | 19 µM | 13.3 µM | 15.2 µM | 17.2 µM | 11.7 µM | 9.7 µM | 12.8 µM | 7.62 µM | 11.3 µM
19 | CCCCCCCCCCCC[n+]1ccccc1 | 4.58 µM | 3.66 µM | 2.88 µM | 10.7 µM | 6.35 µM | 2.85 µM | 3.87 µM | 2.67 µM | 10.5 µM | 5.12 µM | 1.76 µM | 1.17 µM | 0.835 µM | 1.92 µM | 1.73 µM | 1 µM | 0.738 µM | 0.941 µM | 2 µM | 1.68 µM
20 | C#C[C@@]1(O)[C@@H](CO)O[C@@H](n2ccc3c(N)ncnc32)[C@@H]1O | 10.6 µM | > 100 µM | 12 µM | 10.8 µM | 5.24 µM | 5.85 µM | 4.6 µM | 9.48 µM | 12.7 µM | 20.2 µM | 0.473 µM | 0.614 µM | 2.96 µM | 0.595 µM | 1.07 µM | 1.43 µM | 1.93 µM | 2.65 µM | 0.493 µM | 3.99 µM
21 | CN(C)CCNC(=O)Cn1ccc(=O)c2ccc([N+](=O)[O-])cc21 | > 100 µM | > 100 µM | > 100 µM | > 100 µM | > 100 µM | > 100 µM | > 100 µM | > 100 µM | > 100 µM | > 100 µM |  |  |  |  |  |  |  |  |  | 
22 | Nc1ccn(C2CC(O)C(CO)O2)c(=O)n1 (centres undefined) | > 5000 µM | > 5000 µM | > 5000 µM | > 5000 µM | > 5000 µM | > 5000 µM | > 5000 µM | > 5000 µM | > 5000 µM | > 5000 µM | > 5000 µM | > 5000 µM | > 5000 µM | > 5000 µM | > 5000 µM | > 5000 µM | > 5000 µM | > 5000 µM | > 5000 µM | > 5000 µM
23 | COc1cc2nc(N3CCCC3)nc(Nc3ccccc3)c2cc1OC | 3.59 µM | 4.33 µM | 3.3 µM | 2.44 µM | 3.72 µM | 2.84 µM | 2.78 µM | 3.37 µM | 3.17 µM | 3.18 µM | 1.86 µM | 1.54 µM | 1.8 µM | 0.58 µM | 1.99 µM | 1.38 µM | 1.4 µM | 1.88 µM | 1.52 µM | 1.76 µM
24 | CCN(CC)CCCOc1cc(O)c2c(=O)cc(-c3ccccc3)oc2c1 | 14.6 µM | 8.71 µM | 34.1 µM |  | 28 µM | 22.1 µM | 28.8 µM | 25.3 µM | 19.3 µM | 17 µM | 4.2 µM | 3.29 µM | 15.5 µM |  | 14.3 µM | 6.17 µM | 11.6 µM | 10.3 µM | 6.27 µM | 3.42 µM
